Like-named read-outs stand apart in the source and are kept apart here. Marks after values point to notes of the source that are not given here.
Key:
HIV-1 = assay: Study 202 Phase 2b, virologic response (HIV-1 RNA <50 copies/mL, FDA Snapshot), with FTC/TDF
From the text: (§1) Subjects with a history of HIV-2, hepatitis B and/or C, cirrhosis of the liver or any known active or chronic active liver disease were excluded from the study.
The primary efficacy endpoint was virologic response at Week 24, defined as HIV-1 RNA <50 copies/mL using the FDA Snapshot Algorithm.

[1] = Study 202 ECG abnormalities; assay type: in vivo, human; conditions: through Week 48
[2] = for SAE: Suicidal ideation: through Week 48
From the text: as §1
Most AEs were mild or moderate (Grade 1 or Grade 2). […] None of the Grade ≥3 AEs (preferred terms) were reported in more than 1 subject. Table 28 provides an overview of deaths, SAES, AEs, AEs by severity, AEs related to study medication, and AE leading to discontinuation.

[3] = All CVC (N = 115), EFV (N = 28)

CCCCOCCOc1ccc(-c2ccc3c(c2)/C=C(/C(=O)Nc2ccc([S@@+]([O-])Cc4cncn4CCC)cc2)CCCN3CC(C)C)cc1 [CVC, (S)-8-[4-(2-Butoxyethoxy)phenyl]-1-isobutyl-N-(4-{[(1-propyl-1H-imidazol-5-yl)methyl]sulfinyl}phenyl)-1,2,3,4-tetrahydro-1-benzazocine-5-carboxamide]
2 n: Any SAE ([2]; human, in vivo, 48 weeks) | SAE: Infections and infestations ([2]; human, in vivo, 48 weeks) | Subjects with serious AEs ([2]; human, in vivo, 48 weeks)
(9%): Nasopharyngitis, % ([2]; human, in vivo, 48 weeks)
68%: subjects with virologic success (HIV-1 RNA <50 copies/mL) (HIV-1; CVC 100 mg, Week 48)
99 n: Subjects with ≥1 AE ([2]; human, in vivo, 48 weeks)
3 (6%) n (%): QTcB interval Increase by >30-60 ms ([1]; CVC 200 mg (N = 57)) | QTcF interval Increase by >30-60 ms ([1]; CVC 200 mg (N = 57))
9 (9%) n (%): QTcB interval Increase by >30-60 ms [1, 3]
27%: subjects who prematurely discontinued the study (HIV-1; CVC 200 mg arm)
(1%): Syphilis, % ([2]; human, in vivo, 48 week)
4 (8%) n (%): QTcB interval Borderline (450 ms ≤ borderline ≤ 480 ms) ([1]; CVC 100 mg (N = 58)) | QTcF interval Increase by >30-60 ms ([1]; CVC 100 mg (N = 58))
(10%): Dizziness, % ([2]; human, in vivo, 48 weeks)
6 (6%) n (%): QTcB interval Borderline (450 ms ≤ borderline ≤ 480 ms) [1, 3]
29%: subjects who prematurely discontinued the study (HIV-1; CVC 100 mg arm)
0 n (%): HR Abnormally high (120 bpm ≤ abnormally high) [1, 3] | HR Abnormally low (≤ 50 bpm) [1, 3] | QRS Abnormally low (≤ 50 ms) [1, 3] | QTcB interval Pathologically prolonged (> 500 ms) [1, 3] | QTcB interval Prolonged (480 ms < prolonged ≤ 500 ms) [1, 3] | QTcF interval Pathologically prolonged (> 500 ms) [1, 3] | QTcF interval Prolonged (480 ms < prolonged ≤ 500 ms) [1, 3] | HR Abnormally high (120 bpm ≤ abnormally high) ([1]; CVC 100 mg (N = 58)) | HR Abnormally low (≤ 50 bpm) ([1]; CVC 100 mg (N = 58)) | QRS Abnormally low (≤ 50 ms) ([1]; CVC 100 mg (N = 58)) | QTcB interval Pathologically prolonged (> 500 ms) ([1]; CVC 100 mg (N = 58)) | QTcB interval Prolonged (480 ms < prolonged ≤ 500 ms) ([1]; CVC 100 mg (N = 58)) | QTcF interval Pathologically prolonged (> 500 ms) ([1]; CVC 100 mg (N = 58)) | QTcF interval Prolonged (480 ms < prolonged ≤ 500 ms) ([1]; CVC 100 mg (N = 58)) | HR Abnormally high (120 bpm ≤ abnormally high) ([1]; CVC 200 mg (N = 57)) | HR Abnormally low (≤ 50 bpm) ([1]; CVC 200 mg (N = 57)) | QRS Abnormally high (120 ms ≤ abnormally high) ([1]; CVC 200 mg (N = 57)) | QRS Abnormally low (≤ 50 ms) ([1]; CVC 200 mg (N = 57)) | QTcB interval Increase by >60 ms ([1]; CVC 200 mg (N = 57)) | QTcB interval Pathologically prolonged (> 500 ms) ([1]; CVC 200 mg (N = 57)) | QTcB interval Prolonged (480 ms < prolonged ≤ 500 ms) ([1]; CVC 200 mg (N = 57)) | QTcF interval Increase by >60 ms ([1]; CVC 200 mg (N = 57)) | QTcF interval Pathologically prolonged (> 500 ms) ([1]; CVC 200 mg (N = 57)) | QTcF interval Prolonged (480 ms < prolonged ≤ 500 ms) ([1]; CVC 200 mg (N = 57))
6 (12%) n (%): QTcB interval Increase by >30-60 ms ([1]; CVC 100 mg (N = 58))
5 n: Subjects with AEs, by worst grade severity: Grade 3 ([2]; human, in vivo, 48 week) | Any Grade 3 AE ([2]; human, in vivo, 48 weeks)
(8%): Abnormal dreams, % ([2]; human, in vivo, 48 weeks)
(15%): Diarrhoea, % ([2]; human, in vivo, 48 week)
(6): Insomnia, % ([2]; human, in vivo, 48 weeks)
44 n: Subjects with AEs, by worst grade severity: Grade 2 ([2]; human, in vivo, 48 week)
(12%): Fatigue, % ([2]; human, in vivo, 48 week) | Rash, % ([2]; human, in vivo, 48 week)
73%: subjects with virologic success (HIV-1 RNA <50 copies/mL) (HIV-1; CVC 200 mg, Week 24)
1 (2%) n (%): QTcB interval Increase by >60 ms ([1]; CVC 100 mg (N = 58)) | QTcF interval Borderline (450 ms ≤ borderline ≤ 480 ms) ([1]; CVC 100 mg (N = 58)) | QTcF interval Increase by >60 ms ([1]; CVC 100 mg (N = 58)) | PR Abnormally high (210 ms ≤ abnormally high) ([1]; CVC 200 mg (N = 57)) | QTcF interval Borderline (450 ms ≤ borderline ≤ 480 ms) ([1]; CVC 200 mg (N = 57))
64%: subjects with virologic success (HIV-1 RNA <50 copies/mL) (HIV-1; CVC 200 mg, Week 48)
0 n: Deaths [2, 3] | SAE: Suicidal ideation [2, 3] | Grade 3 or 4 AE: Suicidal ideation ([2]; All CVC (N = 115), EFV (N = 28; Grade 4 event)) | Deaths ([2]; CVC 100 mg (N = 58)) | Grade 3 or 4 AE: Suicidal ideation ([2]; CVC 100 mg (N = 58)) | SAE: Suicidal ideation ([2]; CVC 100 mg (N = 58)) | Deaths ([2]; CVC 200 mg (N = 57)) | Grade 3 or 4 AE: Suicidal ideation ([2]; CVC 200 mg (N = 57)) | SAE: Suicidal ideation ([2]; CVC 200 mg (N = 57)) | AE leading to discontinuation: Abnormal dreams ([2]; human, in vivo, 48 week) | AE leading to discontinuation: Anxiety ([2]; human, in vivo, 48 week) | AE leading to discontinuation: Dermatitis allergic ([2]; human, in vivo, 48 week) | AE leading to discontinuation: Ear and labyrinth disorders ([2]; human, in vivo, 48 week) | AE leading to discontinuation: Insomnia ([2]; human, in vivo, 48 week) | AE leading to discontinuation: Rash ([2]; human, in vivo, 48 week) | AE leading to discontinuation: Skin and subcutaneous tissue disorders ([2]; human, in vivo, 48 week) | AE leading to discontinuation: Tachyphrenia ([2]; human, in vivo, 48 week) | AE leading to discontinuation: Tinnitus ([2]; human, in vivo, 48 week) | Subjects with AEs, by worst grade severity: Grade 4 ([2]; human, in vivo, 48 week) | AE leading to discontinuation: Disturbance in attention ([2]; human, in vivo, 48 weeks) | AE leading to discontinuation: Dizziness ([2]; human, in vivo, 48 weeks) | AE leading to discontinuation: Eye disorders ([2]; human, in vivo, 48 weeks) | AE leading to discontinuation: Gastrointestinal disorders ([2]; human, in vivo, 48 weeks) | AE leading to discontinuation: Hypoaesthesia ([2]; human, in vivo, 48 weeks) | AE leading to discontinuation: Musculoskeletal and connective tissue disorders ([2]; human, in vivo, 48 weeks) | AE leading to discontinuation: Musculoskeletal discomfort ([2]; human, in vivo, 48 weeks) | AE leading to discontinuation: Nausea ([2]; human, in vivo, 48 weeks) | AE leading to discontinuation: Nervous system disorders ([2]; human, in vivo, 48 weeks) | AE leading to discontinuation: Photophobia ([2]; human, in vivo, 48 weeks) | Any Grade 4 AE ([2]; human, in vivo, 48 weeks) | Grade 3 or 4 AE: Depression ([2]; human, in vivo, 48 weeks) | Grade 3 or 4 AE: Dermatitis allergic ([2]; human, in vivo, 48 weeks) | Grade 3 or 4 AE: Ear and labyrinth disorders ([2]; human, in vivo, 48 weeks) | Grade 3 or 4 AE: Skin and subcutaneous tissue disorders ([2]; human, in vivo, 48 weeks) | Grade 3 or 4 AE: Tinnitus ([2]; human, in vivo, 48 weeks) | Grade 3 or 4 AE: Weight decreased ([2]; human, in vivo, 48 weeks) | SAE: Depression ([2]; human, in vivo, 48 weeks) | SAE: Psychiatric disorders ([2]; human, in vivo, 48 weeks)
1 (1%)^d n (%): QRS Abnormally high (120 ms ≤ abnormally high) [1, 3]
50 n: Subjects with AEs, by worst grade severity: Grade 1 ([2]; human, in vivo, 48 week)
3 (3%) n (%): PR Abnormally high (210 ms ≤ abnormally high) [1, 3]
(6%): Lymphadenopathy, % ([2]; human, in vivo, 48 weeks)
1 (1%) n (%): QTcB interval Increase by >60 ms [1, 3] | QTcF interval Increase by >60 ms [1, 3]
76%: subjects with virologic success (HIV-1 RNA <50 copies/mL) (HIV-1; CVC 100 mg, Week 24)
1 (2%)^d n (%): QRS Abnormally high (120 ms ≤ abnormally high) ([1]; CVC 100 mg (N = 58))
(86%): Any AE, % ([2]; human, in vivo, 48 week)
(16%): Nausea, % ([2]; human, in vivo, 48 week) | Upper respiratory tract infection, % ([2]; human, in vivo, 48 week)
2 (2%) n (%): QTcF interval Borderline (450 ms ≤ borderline ≤ 480 ms) [1, 3]
(3%): Depression, % ([2]; human, in vivo, 48 week)
1 n: AE leading to discontinuation: Aggression ([2]; human, in vivo, 48 week) | AE leading to discontinuation: Depression ([2]; human, in vivo, 48 week) | AE leading to discontinuation: Psychiatric disorders ([2]; human, in vivo, 48 week) | AE leading to discontinuation: Thinking abnormal ([2]; human, in vivo, 48 week) | Subjects with AEs leading to discontinuation of study medication ([2]; human, in vivo, 48 week) | AE leading to discontinuation: General disorders and administration site conditions ([2]; human, in vivo, 48 weeks) | AE leading to discontinuation: Malaise ([2]; human, in vivo, 48 weeks) | Any AE leading to discontinuation of study drug ([2]; human, in vivo, 48 weeks) | Grade 3 or 4 AE: Abdominal pain ([2]; human, in vivo, 48 weeks) | Grade 3 or 4 AE: Blindness unilateral ([2]; human, in vivo, 48 weeks) | Grade 3 or 4 AE: Blood creatine phosphokinase increased ([2]; human, in vivo, 48 weeks) | Grade 3 or 4 AE: Cardiac disorders ([2]; human, in vivo, 48 weeks) | Grade 3 or 4 AE: Corneal infection ([2]; human, in vivo, 48 weeks) | Grade 3 or 4 AE: Eye disorders ([2]; human, in vivo, 48 weeks) | Grade 3 or 4 AE: Gastrointestinal disorders ([2]; human, in vivo, 48 weeks) | Grade 3 or 4 AE: General disorders and administration site conditions ([2]; human, in vivo, 48 weeks) | Grade 3 or 4 AE: Infections and infestations ([2]; human, in vivo, 48 weeks) | Grade 3 or 4 AE: Investigations ([2]; human, in vivo, 48 weeks) | Grade 3 or 4 AE: Palpitations ([2]; human, in vivo, 48 weeks) | Grade 3 or 4 AE: Psychiatric disorders ([2]; human, in vivo, 48 weeks) | Grade 3 or 4 AE: Pyrexia ([2]; human, in vivo, 48 weeks) | Grade 3 or 4 AE: Stress ([2]; human, in vivo, 48 weeks) | SAE: Blindness unilateral ([2]; human, in vivo, 48 weeks) | SAE: Corneal infection ([2]; human, in vivo, 48 weeks) | SAE: Eye disorders ([2]; human, in vivo, 48 weeks) | SAE: Gastroenteritis ([2]; human, in vivo, 48 weeks)
54 n: Subjects with AEs related to study medication ([2]; human, in vivo, 48 week)
7 (7%) n (%): QTcF interval Increase by >30-60 ms [1, 3]
2 (4%) n (%): QTcB interval Borderline (450 ms ≤ borderline ≤ 480 ms) ([1]; CVC 200 mg (N = 57))
(14%): Headache, % ([2]; human, in vivo, 48 week)
2 (3%) n (%): PR Abnormally high (210 ms ≤ abnormally high) ([1]; CVC 100 mg (N = 58))

Source: patent US20200368247A1, “CENICRIVIROC FOR THE TREATMENT OF FIBROSIS” (Tobira Therapeutics, Inc., priority 2014, published 2020)
